Results reported in ChEMBL document CHEMBL1201862, “PubChem BioAssay data set” (2004).
The source made the active and inactive calls.

Key:
[1] = biological target: Potassium voltage-gated channel subfamily KQT member 2 (Rattus norvegicus, UniProt O88943); assay: KCNQ2 channel activators, analog series, SAR follow-up, automated patch clamp, KCNQ2-CHO cells (AID 493113); assay type: functional
[2] = Luminescence Cell-Based Dose Response HTS to Identify Inhibitors of 5'UTR Stem-Loop Driven Prion Protein mRNA Translation in H4 Neuroglioblastoma Cells. [Related pubchem assays: 1827 (Project Summary), 1813 (Primary HTS)]; assay type: functional
[3] = biological target: T1, G-protein coupled receptor 35 (Homo sapiens, UniProt Q9HC97); assay: GPR35 antagonists blocking zaprinast-driven arrestin recruitment, primary screen, imaging, U2OS, beta-arrestin-GFP, zaprinast agonist (AID 2058); assay type: functional;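 further: antagonist potency meaning inhibition of agonist-induced arrestin redistribution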
[4] = biological target: G-protein coupled receptor 55 (Homo sapiens, UniProt Q9Y2T6); assay: GPR55 antagonists, SAR follow-up, counter-screen for GPR35 antagonist project, imaging, image-based (AID 2397); assay type: functional
[5] = biological target: T2, Tyrosine-protein phosphatase non-receptor type 7 (Homo sapiens, UniProt P35236); assay: HePTP (PTPN7) phosphatase inhibitor potency, SAR follow-up, biochemical, set 2 (AID 449736); assay type: functional
T2 sequence (P35236 whole entry): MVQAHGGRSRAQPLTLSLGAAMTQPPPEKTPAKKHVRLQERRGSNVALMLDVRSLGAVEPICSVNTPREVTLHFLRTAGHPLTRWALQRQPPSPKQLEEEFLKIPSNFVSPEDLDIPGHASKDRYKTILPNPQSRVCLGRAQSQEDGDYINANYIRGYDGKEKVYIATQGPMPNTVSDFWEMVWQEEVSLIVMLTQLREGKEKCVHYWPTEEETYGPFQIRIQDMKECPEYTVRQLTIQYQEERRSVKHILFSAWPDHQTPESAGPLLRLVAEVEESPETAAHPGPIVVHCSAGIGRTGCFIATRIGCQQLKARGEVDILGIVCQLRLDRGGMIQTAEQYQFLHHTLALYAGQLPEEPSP

[6] = biological target: T3, Tyrosine-protein phosphatase non-receptor type 22 (Homo sapiens, UniProt Q9Y2R2); assay: SAR LYP1 Fluorescent Assay using OMFP substrate for In Vitro dose response studies - Set 3. [Related pubchem assays (depositor defined):AID1779, AID1784, AID2140, AID2686]; assay type: functional
T3 sequence (Q9Y2R2 whole entry): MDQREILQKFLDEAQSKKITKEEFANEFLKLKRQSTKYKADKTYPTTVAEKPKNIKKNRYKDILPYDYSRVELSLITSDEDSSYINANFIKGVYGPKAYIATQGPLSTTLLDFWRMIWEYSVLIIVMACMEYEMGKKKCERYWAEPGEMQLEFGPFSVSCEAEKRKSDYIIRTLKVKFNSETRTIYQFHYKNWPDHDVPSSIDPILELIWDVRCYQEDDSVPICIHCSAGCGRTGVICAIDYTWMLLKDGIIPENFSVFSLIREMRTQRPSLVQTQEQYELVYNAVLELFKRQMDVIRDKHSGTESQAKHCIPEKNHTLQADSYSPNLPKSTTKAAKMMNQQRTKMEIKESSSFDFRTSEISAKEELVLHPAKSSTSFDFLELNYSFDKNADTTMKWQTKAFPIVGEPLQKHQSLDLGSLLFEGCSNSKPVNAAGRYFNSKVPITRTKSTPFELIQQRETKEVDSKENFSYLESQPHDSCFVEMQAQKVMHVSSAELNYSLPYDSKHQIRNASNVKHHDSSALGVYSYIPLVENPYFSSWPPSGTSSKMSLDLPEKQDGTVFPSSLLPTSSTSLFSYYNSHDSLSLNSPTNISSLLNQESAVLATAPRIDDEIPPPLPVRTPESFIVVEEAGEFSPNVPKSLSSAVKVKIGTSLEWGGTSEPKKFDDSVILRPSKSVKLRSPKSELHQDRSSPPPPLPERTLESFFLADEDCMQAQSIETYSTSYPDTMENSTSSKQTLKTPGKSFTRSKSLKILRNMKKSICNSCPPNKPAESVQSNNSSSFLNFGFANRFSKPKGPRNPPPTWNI

[7] = biological target: T1, G-protein coupled receptor 35; assay: SAR Analysis for the identification of Selective Antagonists of ERK1/2 Activity in GPR35-Overexpressing U2OS Cells. [Related pubchem assays: 2079, 2058 ]; assay type: functional, cell-based
[8] = biological target: Tyrosine-protein phosphatase non-receptor type 12 (Homo sapiens, UniProt Q05209); assay: SAR Selectivity Analysis of small molecule inhibitors of PEST using pCAP in a fluorescence assay. [Related pubchem assays (depositor defined):AID1779, AID1784, AID2135]; assay type: functional
[9] = inhibitors of SNCA 5'UTR-driven reporter translation, confirmation, H4 neuroglioma cells, luminescence (AID 1988); assay type: functional, cell-based
[10] = inhibitors of firefly luciferase expression or activity, dose response, H4 neuroglioma cells, luminescence (AID 1990); assay type: functional, cell-based
[11] = biological target: T3, Tyrosine-protein phosphatase non-receptor type 22; assay: LYP (PTPN22) phosphatase inhibitor potency, SAR follow-up, biochemical, pCAP fluorogenic substrate, fluorescence, set 3 (AID 449727); assay type: functional
Cytochrome P450 1A2 [12] = biological target: T4, Cytochrome P450 1A2 (Homo sapiens, UniProt P05177);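 further: PubChem cytochrome P450 panel assay, CYP1A2 panel member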
T4 sequence (P05177 whole entry): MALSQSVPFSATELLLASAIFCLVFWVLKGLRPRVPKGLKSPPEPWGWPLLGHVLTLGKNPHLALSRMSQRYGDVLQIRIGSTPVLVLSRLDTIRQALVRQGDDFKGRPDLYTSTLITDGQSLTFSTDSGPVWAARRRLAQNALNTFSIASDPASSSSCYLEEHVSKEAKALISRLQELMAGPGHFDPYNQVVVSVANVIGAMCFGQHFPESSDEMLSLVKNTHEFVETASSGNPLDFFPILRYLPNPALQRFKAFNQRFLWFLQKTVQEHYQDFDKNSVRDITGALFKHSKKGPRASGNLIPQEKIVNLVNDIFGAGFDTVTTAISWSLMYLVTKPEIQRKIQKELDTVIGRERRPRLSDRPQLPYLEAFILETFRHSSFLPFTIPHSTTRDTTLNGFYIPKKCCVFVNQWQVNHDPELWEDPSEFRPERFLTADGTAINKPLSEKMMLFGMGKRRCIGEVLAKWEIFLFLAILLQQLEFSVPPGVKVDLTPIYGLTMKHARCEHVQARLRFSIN

Cytochrome P450 2C19 = Cytochrome P450 2C19 (Homo sapiens, UniProt P33261); assay: Cytochrome panel assay with activity outcomes. Panel member name: p450-cyp2c19 Compounds with AC50 equal or less than 10 uM are considered active; assay type: functional; details: read-out: AC50
Cytochrome P450 3A4 = Cytochrome P450 3A4 (Homo sapiens, UniProt P08684);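 further: CYP3A4 tested as one member of a cytochrome P450 panel screen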
Streptokinase A = biological target: T5, Streptokinase A (Streptococcus pyogenes serotype M1, UniProt P10520); assay: S. pyogenes streptokinase expression inhibitors, potency, dose response, plasminogen activation absorbance, OD405 (AID 1914); assay type: functional, Streptococcus pyogenes M1 GAS;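 further: secreted streptokinase activity via plasminogen activation per viability signal from cell pellet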
T5 sequence (P10520 whole entry): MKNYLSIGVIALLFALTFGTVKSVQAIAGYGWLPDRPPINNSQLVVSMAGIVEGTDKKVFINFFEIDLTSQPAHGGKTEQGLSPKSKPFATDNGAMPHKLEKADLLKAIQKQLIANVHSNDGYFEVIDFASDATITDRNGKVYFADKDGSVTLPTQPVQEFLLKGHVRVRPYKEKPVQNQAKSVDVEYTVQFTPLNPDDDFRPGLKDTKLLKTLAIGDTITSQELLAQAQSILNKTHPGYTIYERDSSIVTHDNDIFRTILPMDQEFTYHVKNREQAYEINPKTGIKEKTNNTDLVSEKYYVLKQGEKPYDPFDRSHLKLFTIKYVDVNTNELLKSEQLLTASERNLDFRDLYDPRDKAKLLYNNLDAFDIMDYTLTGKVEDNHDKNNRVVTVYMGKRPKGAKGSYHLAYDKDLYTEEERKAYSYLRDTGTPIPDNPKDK

BJ [13] = assay: cytotoxicity toward BJ-TERT fibroblasts, dose response, cell-based, RAS-independent, luminescence (AID 1933); assay type: functional; details: Homo sapiens
Exodeoxyribonuclease V = Exodeoxyribonuclease V (Escherichia coli (strain K12), UniProt P04993+P07648+P08394); assay: E. coli RecBCD inhibitors, dose response, counter-screen for AddAB inhibitor project, absorbance, V66 E. coli, mutant T4 phage (AID 492957); assay type: functional, cell-based, Escherichia coli str. K-12 substr. MG1655
[14] = cytotoxicity toward DRD oncogenic fibroblasts, dose response, cell-based, non-viral oncogenic, luminescence (AID 1934); assay type: functional; details: Homo sapiens
[15] = Counterscreen for AddAB inhibitors: absorbance-based bacterial cell-based high throughput dose response assay for inhibitors of bacterial viability. [Related pubchem assays (depositor defined):AID435030, AID449728, AID449731, AID488942, AID488955, AID488956]; assay type: functional
Streptococcus = assay: Group A Streptococcus viability loss, dose response, counter-screen for streptokinase expression inhibitor project, luminescence, BacTiterGlo (AID 1915); assay type: functional, organism-based;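 further: potency for reduction of bacterial viability or growth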
Bcl-2-like protein 10 = Bcl-2-like protein 10 (Homo sapiens, UniProt Q9HD36); assay: displacers of TR3 peptide from Bcl-B, primary screen, selectivity assay for Bfl-1 inhibitor project, biochemical, fluorescence polarization, FITC-TR3 peptide (AID 748);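 further: fluorescence polarization from a fluorescein-labelled TR3 peptide binding purified Bcl-B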
[16] = tested on: Streptococcus sp. 'group A'; assay: growth inhibition of control SK(-) GAS strain, dose response, counter-screen for streptokinase expression inhibitor project, luminescence, kanamycin, BacTiterGlo, confirmation (AID 1900); assay type: functional, organism-based
BJ [17] = assay: cells; assay type: functional, cell-based; details: Homo sapiens
Cytochrome P450 1A2 [18] = biological target: T4, Cytochrome P450 1A2; remark: listed apart in the source
[19] = biological target: Sphingosine 1-phosphate receptor 2 (Homo sapiens, UniProt O95136); assay: Dose Response Cell Based Assay for Antagonists of the S1P2 Receptor. [Related pubchem assays: 856, 736 ]; assay type: functional
BJ [20] = assay: cytotoxicity toward BJ-TERT-LT-ST fibroblasts, dose response, cell-based, RAS-independent, luminescence (AID 1935); assay type: functional; details: Homo sapiens;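 further: BJ fibroblasts immortalized with TERT plus LT and ST oncogenes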
INS1 = assay: beta cell apoptosis inhibitors, cytokine rescue, dose response, luminescence, retest (AID 449756); assay type: functional, cell-based; details: Rattus norvegicus;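 further: cell death triggered by IL-1 beta plus TNF-alpha plus IFN-gamma mixture; protective hits raise ATP signal compared with cytokine alone wells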

T1 sequence (Q9HC97 whole entry): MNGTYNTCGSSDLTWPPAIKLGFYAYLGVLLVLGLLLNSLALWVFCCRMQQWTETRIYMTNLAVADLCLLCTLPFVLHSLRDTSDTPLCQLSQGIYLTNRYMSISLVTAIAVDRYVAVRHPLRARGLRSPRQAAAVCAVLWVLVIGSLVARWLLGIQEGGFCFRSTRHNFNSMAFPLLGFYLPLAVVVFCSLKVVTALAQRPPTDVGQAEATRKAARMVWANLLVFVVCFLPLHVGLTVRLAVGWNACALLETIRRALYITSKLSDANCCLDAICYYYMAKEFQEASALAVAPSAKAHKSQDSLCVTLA
Sequence of G-protein coupled receptor 55 (Q9Y2T6 whole entry): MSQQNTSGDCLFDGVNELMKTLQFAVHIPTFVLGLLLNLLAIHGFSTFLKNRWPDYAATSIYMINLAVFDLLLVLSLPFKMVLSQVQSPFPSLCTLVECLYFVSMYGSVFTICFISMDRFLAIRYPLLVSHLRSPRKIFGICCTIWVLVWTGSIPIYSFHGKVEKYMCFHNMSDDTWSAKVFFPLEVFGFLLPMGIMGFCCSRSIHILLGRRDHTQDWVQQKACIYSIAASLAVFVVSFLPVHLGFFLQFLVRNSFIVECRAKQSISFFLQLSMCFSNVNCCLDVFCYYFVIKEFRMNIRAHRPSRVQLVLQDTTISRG
Sequence of Cytochrome P450 3A4 (P08684 whole entry): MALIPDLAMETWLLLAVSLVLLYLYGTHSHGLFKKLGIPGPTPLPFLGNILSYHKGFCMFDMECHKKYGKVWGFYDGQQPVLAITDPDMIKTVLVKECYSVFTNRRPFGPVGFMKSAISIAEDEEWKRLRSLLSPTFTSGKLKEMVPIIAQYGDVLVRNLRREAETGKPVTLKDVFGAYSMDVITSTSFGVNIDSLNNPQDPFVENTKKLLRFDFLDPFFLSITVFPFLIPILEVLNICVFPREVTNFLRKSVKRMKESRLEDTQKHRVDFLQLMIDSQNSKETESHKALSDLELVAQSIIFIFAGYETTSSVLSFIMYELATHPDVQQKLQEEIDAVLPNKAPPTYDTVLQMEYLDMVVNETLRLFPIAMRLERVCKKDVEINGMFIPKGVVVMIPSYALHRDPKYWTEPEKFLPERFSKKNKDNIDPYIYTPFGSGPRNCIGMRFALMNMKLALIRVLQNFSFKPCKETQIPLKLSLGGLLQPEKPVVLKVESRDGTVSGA
Sequence of Potassium voltage-gated channel subfamily KQT member 2 (O88943 whole entry): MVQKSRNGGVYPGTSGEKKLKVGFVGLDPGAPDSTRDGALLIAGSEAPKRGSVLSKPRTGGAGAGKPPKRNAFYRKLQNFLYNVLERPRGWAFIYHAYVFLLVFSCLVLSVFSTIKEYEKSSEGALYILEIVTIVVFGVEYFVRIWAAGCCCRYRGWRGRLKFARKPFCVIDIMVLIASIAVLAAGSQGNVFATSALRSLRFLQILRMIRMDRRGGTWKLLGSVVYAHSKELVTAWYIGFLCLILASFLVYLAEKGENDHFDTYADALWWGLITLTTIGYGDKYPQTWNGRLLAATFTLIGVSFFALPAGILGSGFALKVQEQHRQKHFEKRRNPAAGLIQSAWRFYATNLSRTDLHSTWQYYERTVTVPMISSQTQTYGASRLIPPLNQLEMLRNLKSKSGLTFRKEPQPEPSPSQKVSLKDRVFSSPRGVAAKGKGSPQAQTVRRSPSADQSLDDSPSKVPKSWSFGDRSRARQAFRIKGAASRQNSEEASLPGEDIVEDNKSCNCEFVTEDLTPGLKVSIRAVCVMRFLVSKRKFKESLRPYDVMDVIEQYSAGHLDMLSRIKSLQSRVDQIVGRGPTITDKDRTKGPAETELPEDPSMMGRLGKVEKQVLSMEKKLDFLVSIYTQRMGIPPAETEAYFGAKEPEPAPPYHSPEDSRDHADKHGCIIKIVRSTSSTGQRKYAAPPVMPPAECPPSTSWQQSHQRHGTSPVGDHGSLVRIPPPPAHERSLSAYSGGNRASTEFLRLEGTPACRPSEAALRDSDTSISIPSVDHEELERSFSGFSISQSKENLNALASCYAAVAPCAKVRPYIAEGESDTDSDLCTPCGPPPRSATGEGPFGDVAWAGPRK
Sequence of Bcl-2-like protein 10 (Q9HD36 whole entry): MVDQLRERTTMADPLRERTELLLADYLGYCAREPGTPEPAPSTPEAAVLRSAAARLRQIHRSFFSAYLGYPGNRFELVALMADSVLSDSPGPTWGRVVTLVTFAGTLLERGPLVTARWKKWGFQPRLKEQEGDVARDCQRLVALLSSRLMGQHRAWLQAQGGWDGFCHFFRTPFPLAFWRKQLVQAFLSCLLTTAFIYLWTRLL
Sequence of Sphingosine 1-phosphate receptor 2 (O95136 whole entry): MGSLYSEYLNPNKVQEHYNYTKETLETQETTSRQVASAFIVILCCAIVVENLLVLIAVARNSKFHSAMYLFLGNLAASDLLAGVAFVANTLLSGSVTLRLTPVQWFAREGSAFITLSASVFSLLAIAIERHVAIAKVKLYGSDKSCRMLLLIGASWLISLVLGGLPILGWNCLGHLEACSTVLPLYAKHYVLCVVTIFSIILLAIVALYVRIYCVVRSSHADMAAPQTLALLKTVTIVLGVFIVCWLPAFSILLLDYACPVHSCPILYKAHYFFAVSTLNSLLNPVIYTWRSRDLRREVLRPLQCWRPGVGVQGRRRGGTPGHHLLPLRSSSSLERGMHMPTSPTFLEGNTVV
Sequence of Cytochrome P450 2C19 (P33261 whole entry): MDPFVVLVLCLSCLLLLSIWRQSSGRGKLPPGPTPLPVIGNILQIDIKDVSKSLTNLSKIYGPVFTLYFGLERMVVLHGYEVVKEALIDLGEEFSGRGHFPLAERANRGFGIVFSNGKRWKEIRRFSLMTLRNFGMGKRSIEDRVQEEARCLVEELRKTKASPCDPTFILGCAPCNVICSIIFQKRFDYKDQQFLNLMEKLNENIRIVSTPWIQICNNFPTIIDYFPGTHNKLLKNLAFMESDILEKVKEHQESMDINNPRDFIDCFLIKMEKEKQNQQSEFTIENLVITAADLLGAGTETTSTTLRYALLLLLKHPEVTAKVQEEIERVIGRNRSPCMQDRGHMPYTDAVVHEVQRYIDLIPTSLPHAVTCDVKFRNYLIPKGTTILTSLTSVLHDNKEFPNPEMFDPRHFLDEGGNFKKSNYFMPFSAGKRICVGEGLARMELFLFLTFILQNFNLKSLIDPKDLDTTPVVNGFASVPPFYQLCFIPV
Sequence of Tyrosine-protein phosphatase non-receptor type 12 (Q05209 whole entry): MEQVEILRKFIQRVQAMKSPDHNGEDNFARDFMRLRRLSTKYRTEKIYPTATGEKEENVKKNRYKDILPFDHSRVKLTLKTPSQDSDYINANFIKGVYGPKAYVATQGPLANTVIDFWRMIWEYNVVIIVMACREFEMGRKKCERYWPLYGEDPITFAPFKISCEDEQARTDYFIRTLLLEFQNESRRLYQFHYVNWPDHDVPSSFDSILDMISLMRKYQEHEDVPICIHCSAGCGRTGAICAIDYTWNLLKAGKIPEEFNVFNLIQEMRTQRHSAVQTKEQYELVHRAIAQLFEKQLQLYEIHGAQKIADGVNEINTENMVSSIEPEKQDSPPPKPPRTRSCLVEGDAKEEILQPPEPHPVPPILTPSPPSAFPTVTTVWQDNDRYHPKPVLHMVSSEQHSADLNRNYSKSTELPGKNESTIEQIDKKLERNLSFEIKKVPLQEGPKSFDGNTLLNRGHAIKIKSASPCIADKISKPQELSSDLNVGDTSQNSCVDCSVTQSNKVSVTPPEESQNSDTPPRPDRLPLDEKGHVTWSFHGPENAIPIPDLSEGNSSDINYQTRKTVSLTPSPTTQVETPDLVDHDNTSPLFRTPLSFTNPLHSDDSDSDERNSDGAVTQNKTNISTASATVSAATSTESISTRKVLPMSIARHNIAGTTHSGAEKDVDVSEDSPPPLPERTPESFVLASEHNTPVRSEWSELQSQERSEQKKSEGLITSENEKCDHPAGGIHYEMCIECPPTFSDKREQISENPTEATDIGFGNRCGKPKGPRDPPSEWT

## O=C(Nc1ccc2ccccc2c1)C1CC2CCC1C2 (configuration not stated)
[1]
  EC50: 0.6 µM (active)

## O=C(CCCN1C(=O)/C(=C/c2ccc3c(c2)OCO3)SC1=S)Nc1cccc(C(=O)O)c1
[2]
  EC50: 17.5 µM (active)
[3]
  IC50: 0.803 µM (active)
[4]
  IC50: > 32 µM (inactive)
[5]
  IC50: 2.47 µM (active)
[6]
  IC50: > 100 µM (inactive)
[7]
  IC50: 1.89 µM (active)
[8]
  IC50: 37.4 µM (active)
[9]
  EC50: > 120 µM (not active)
[10]
  EC50: 10.2 µM (active)
[11]
  IC50: 62.7 µM (active)

## C[C@@H]1COc2c(N3CCN(C)CC3)c(F)cc3c(=O)c(C(=O)O)cn1c23 [DEXTROFLOXACINE]
Cytochrome P450 1A2 [12]
  AC50: inactive

## Cc1ccc(-[n+]2c(-c3ccc(Br)cc3)cn3c2CCc2ccc4cccnc4c2-3)cc1
Cytochrome P450 2C19
  AC50: 28.2 µM (inconclusive)
Cytochrome P450 3A4
  AC50: 4.47 µM (inconclusive)
Streptokinase A
  EC50: 6.5 µM (active)
BJ [13]
  EC50: 0.649 µM (inconclusive)
Exodeoxyribonuclease V
  IC50: 28.4 µM (inactive)
[14]
  EC50: 3.51 µM (active)
[15]
  IC50: 16.9 µM (inactive)
Streptococcus
  EC50: > 50 µM (not active)
Bcl-2-like protein 10
  IC50: 41.4 µM (active)
[16]
  EC50: 6.51 µM (active)
BJ [17]
  EC50: 1.69 µM (inconclusive)
Cytochrome P450 1A2 [18]
  AC50: 25.1 µM (inconclusive)
[19]
  IC50: 4.28 µM (active)
BJ [20]
  EC50: 2.98 µM (inconclusive)
INS1
  AC50: 0.412 µM (active)
